Two compounds from patent US6476077B1, “N-(2-phenyl-4-amino-butyl)-1-naphthamides as neurokinin-1 receptor antagonists” (Astrazeneca AB, priority 1999, dated 2002) can be followed below.

The assay deals with T1, NK1 receptor (Oryctolagus cuniculus, UniProt G1SEI7).
T1 construct: The pulmonary arteries are isolated from the rest of the tissues and cut in half to serve as pairs; from tissue; host or cells: rabbit pulmonary artery rings (male New Zealand white rabbit)
Briefly: Rabbit Pulmonary Artery: NK1 in vitro functional assay (Test C). The assay is classed as biochemical. To be noted: rabbit pulmonary artery rings; antagonism of relaxation by agonist ASMSP; -log molar KB; read-out: NK1 pKb (Test C) (converted). The protocol:
Rabbit Pulmonary Artery: NK1 in vitro functional assay (Test C)
The ability of a Compound of the invention to antagonize the action of the agonist Ac-[Arg^6, Sar^9, Met(O2)^11]
Male New Zealand white rabbits are euthanized via i.v. injection into an ear vein with 60 mg/kg Nembutal (50 mg/ml). Preceding the Nembutal into the vein is Heparin (1000 units/ml) at 0.0025 ml/kg for anticoagulant purposes. The chest cavity is opened from the top of the rib cage to the sternum and the heart, lungs and part of the trachea are removed. The pulmonary arteries are isolated from the rest of the tissues and cut in half to serve as pairs.
The segments are suspended between stainless steel stirrups, so as not to remove any of the endothelium, and placed in water-jacketed (37.0° C.) tissue baths containing physiological salt solution of the following composition (mM): NaCl, 118.0; KCl, 4.7; CaCl2, 1.8; MgCl2, 0.54; NaH2PO4, 1.0; NaHCO3, 25.0; glucose, 11.0; indomethacin, 0.005(to inhibit cyclooxygenase); and dl-Propranolol, 0.001(to block β receptors); gassed continuously with 95% O2-5% CO2. Responses are measured on a Grass polygraph via Grass FT-03 transducers and the electrical signals (data) acquired using a Mi^2 software/hardware system for subsequent conversion to measures of relaxation. […]

T1 sequence (G1SEI7 1-407): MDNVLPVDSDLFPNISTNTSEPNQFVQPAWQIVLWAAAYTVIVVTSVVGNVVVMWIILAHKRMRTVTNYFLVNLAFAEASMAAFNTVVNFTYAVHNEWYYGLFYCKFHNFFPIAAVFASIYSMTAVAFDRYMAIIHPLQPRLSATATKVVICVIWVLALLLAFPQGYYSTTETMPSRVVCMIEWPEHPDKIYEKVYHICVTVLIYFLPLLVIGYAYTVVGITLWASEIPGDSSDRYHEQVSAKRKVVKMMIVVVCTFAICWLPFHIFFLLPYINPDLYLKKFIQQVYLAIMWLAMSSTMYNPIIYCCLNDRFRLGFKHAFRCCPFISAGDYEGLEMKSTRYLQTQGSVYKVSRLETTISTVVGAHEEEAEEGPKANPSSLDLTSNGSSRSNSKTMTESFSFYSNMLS

For `COc1c(C#N)cc2ccccc2c1C(=O)N(C)CC(CCN1CCOCC1)c1ccc(Cl)c(Cl)c1` (centres unmarked) [Example 4], the Kb is 5.01 nM.
For `COc1c(C#N)cc2ccccc2c1C(=O)N(C)CC(CCN(C)C)c1ccc(Cl)c(Cl)c1` (centres unmarked) [Example 6] the value was 2 nM.
